Experimental data from publication PMC4364779, “IMD-4690, a Novel Specific Inhibitor for Plasminogen Activator Inhibitor-1, Reduces Allergic Airway Remodeling in a Mouse Model of Chronic Asthma via Regulating Angiogenesis and Remodeling-Related Mediators” (PLoS ONE, 2015).

Columns and labels:
[1] = test system: chronic allergen exposure model of bronchial asthma in mice; assay: Lung resistance (RL) by restrained whole body plethysmography, chronic Dp asthma model; type: in vivo, mouse; conditions: at 25 and 50 mg/mL of Mch, day 70, 10 mg/kg i.p., vs Dp/CMC mice
Method: (§1) All mice were sensitized on days 0 and 7 by intraperitoneal injections of 10 μg of Dp dissolved in 500 μL saline and mixed with 1mg of Alum (Sigma-Aldrich Japan). Dp-sensitized mice were challenged intranasally with 10 μg (10 μL) Dp in 70 μL saline on alternate days, 3 days per week, from days 14 to 67. The mice were also treated intraperitoneally with IMD-4690 (10 mg/kg) (Dp/IMD group) or CMC alone (Dp/CMC group) at the same day with Dp challenge. As a control, mice were challenged with saline and given CMC during this period (control/CMC group) (Fig. 1A). Each experiment was performed using six mice per group.
Seventy-two hours after the final challenge (day 70), lung resistance (RL) was measured by restrained whole body plethysmography (Buxco Electronics). Mice were anesthetized by 6 mg/mL 2,2,2-tribromoethanol with 2-methyl-2-butanol. Then mice were tracheostomized and cannulated with a 19-gauge tracheostomy tube, and were placed in the chamber for plethysmography and mechanically ventilated. Aerosolized β-methacholine (Mch) was administered by an in-line aerosol delivery system at different concentrations (6.25, 12.5, 25, and 50 mg/mL). After each Mch challenge, data were continuously collected, and values of RL were taken to express the changes in these functional parameters. The data were expressed as the percentage change from baseline RL obtained after inhalation of saline.

[2] = biological target: T1, α1-anti-plasmin (SERPINF2) (Homo sapiens, UniProt P08697); assay: SERPIN inhibition selectivity, similar enzymatic method; type: biochemical; conditions: Ser protease: Plasmin
T1 sequence (P08697 40-491): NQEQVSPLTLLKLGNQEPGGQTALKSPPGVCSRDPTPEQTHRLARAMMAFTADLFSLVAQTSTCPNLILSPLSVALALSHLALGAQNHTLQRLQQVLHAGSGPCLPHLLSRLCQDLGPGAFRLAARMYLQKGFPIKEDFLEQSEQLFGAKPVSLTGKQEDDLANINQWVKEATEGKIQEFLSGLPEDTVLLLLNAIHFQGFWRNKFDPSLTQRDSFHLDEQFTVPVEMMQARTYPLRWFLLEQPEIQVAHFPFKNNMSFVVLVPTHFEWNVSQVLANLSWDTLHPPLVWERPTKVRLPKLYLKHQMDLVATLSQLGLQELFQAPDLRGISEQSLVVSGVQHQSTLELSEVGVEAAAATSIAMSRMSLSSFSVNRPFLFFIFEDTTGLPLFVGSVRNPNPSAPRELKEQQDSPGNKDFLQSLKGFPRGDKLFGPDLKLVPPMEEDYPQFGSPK
Method: (§2) Inhibitory effect of IMD-4690 on the activity of PAI-1 was measured by the direct tPA assay. Briefly, recombinant tPA and PAI-1 was mixed with IMD-4690, and then tPA substrate with fluorescent pigment (Pyr-Gly-Arg-MCA) was added in this mixture and incubated. The enzymatic activity was calculated by measuring the fluorescence. The inhibitory activity of IMD-4690 on other enzymes was measured with the similar method.

PAI-2 (SERPINB2) = PAI-2 (SERPINB2) (Homo sapiens, UniProt P05120); assay: as above; type: biochemical; conditions: Ser protease: uPA
PAI-2 (SERPINB2), sequence (P05120 whole entry): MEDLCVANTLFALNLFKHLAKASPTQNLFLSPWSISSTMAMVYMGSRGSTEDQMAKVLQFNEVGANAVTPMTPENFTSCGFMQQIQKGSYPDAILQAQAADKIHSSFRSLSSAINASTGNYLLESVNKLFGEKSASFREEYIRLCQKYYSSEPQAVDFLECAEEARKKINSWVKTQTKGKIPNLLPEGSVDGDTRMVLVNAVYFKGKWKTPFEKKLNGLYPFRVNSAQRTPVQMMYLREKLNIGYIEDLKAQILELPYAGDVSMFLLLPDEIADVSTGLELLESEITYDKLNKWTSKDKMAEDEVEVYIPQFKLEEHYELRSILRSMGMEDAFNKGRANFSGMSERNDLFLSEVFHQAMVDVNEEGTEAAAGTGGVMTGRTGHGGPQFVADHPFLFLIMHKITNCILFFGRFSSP
Method: as §2

[3] = biological target: Anti-thrombin (AT3/SERPINC1) (Homo sapiens, UniProt P01008); assay: as above; type: biochemical; conditions: Ser protease: Thrombin, factor Xa
Anti-thrombin (AT3/SERPINC1), sequence (P01008 33-464): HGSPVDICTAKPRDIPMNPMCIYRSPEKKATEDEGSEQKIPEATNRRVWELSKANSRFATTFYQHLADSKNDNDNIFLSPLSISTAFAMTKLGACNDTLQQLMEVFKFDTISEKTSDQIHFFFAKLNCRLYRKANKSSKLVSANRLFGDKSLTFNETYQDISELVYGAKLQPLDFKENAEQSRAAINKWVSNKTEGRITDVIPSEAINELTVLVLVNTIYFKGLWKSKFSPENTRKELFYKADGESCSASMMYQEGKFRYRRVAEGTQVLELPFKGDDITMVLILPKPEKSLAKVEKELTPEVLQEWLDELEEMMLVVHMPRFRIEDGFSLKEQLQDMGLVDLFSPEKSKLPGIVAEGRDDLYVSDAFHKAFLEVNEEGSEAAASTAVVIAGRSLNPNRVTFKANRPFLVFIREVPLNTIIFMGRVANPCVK
Method: as §2

[4] = biological target: T2, α1-anti-chymotrypsin (SERPINA3) (Homo sapiens, UniProt P01011); assay: as above; type: biochemical; conditions: Ser protease: Chymotrypsin, Cathepsin G
T2 sequence (P01011 24-423): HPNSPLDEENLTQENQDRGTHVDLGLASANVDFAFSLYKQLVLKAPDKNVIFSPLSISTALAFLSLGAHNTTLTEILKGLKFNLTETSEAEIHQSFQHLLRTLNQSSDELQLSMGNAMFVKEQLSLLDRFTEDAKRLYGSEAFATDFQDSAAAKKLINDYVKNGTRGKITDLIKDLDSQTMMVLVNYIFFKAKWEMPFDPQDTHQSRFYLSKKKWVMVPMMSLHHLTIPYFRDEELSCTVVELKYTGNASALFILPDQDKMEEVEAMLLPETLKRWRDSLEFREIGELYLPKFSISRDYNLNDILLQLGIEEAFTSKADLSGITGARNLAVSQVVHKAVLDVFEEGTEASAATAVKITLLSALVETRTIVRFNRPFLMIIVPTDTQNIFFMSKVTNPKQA
Method: as §2

[5] = biological target: T3, Heparin Cofactor 2 (HC2/SERPIND1) (Homo sapiens, UniProt P05546); assay: as above; type: biochemical; conditions: Ser protease: Thrombin
T3 sequence (P05546 20-499): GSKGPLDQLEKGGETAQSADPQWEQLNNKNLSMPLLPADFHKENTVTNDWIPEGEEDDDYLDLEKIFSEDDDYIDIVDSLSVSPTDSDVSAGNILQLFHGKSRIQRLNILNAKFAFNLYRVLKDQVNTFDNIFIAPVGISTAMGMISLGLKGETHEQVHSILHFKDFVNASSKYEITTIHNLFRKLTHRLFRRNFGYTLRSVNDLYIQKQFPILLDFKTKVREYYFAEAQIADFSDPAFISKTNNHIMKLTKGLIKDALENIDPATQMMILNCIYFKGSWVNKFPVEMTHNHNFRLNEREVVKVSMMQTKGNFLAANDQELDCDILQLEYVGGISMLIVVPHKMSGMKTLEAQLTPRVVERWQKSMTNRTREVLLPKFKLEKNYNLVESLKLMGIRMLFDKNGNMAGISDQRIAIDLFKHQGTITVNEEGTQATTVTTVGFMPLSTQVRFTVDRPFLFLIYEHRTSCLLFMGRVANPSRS
Method: as §2

[6] = Body weight and adverse effects in Dp-sensitized mice; type: in vivo, mouse; conditions: 10 mg/kg i.p.
Description: Six-week-old female BALB/c mice (15–20 g) were purchased from CLEA Japan Inc. (Tokyo, Japan). Mice were maintained in the animal facility of the University of Tokushima according to the guidelines of the ethics committee of our university. The present study was approved by Institutional Animal Care and Use Committee of the University of Tokushima (Permission Number: 11134). Mice were housed under specific pathogen-free conditions with 12-h light/dark cycle in a temperature-controlled room with free access to food and water. Mice were monitored weekly for body weight and daily for food and water intake and assessed visually for signs of clinical disease including inactivity, labored respiration and ruffled fur.
as §1

[7] = test system: chronic allergen exposure model of bronchial asthma in mice; assay: Total lung collagen (Sircol assay), chronic Dp asthma model; type: in vivo, mouse; conditions: day 70, 10 mg/kg i.p., vs Dp/CMC mice
Method: as §1
The left lungs were harvested on day 70 and used for collagen assays. Total lung collagen was determined using a Sircol Collagen Assay kit (Biocolor Ltd, Belfast, Northern Ireland) according to the manufacturer’s instructions.

Structure (SMILES): CC(C)(C)c1ccc(Oc2cc(-c3ccc(OC(F)(F)F)cc3)ccc2OCC(=O)O)cc1 [IMD-4690, 2-[[3-(4-tert-Butylphenoxy)-4'-(trifluoromethoxy) [1,1'-biphenyl]-4-yl]oxy] acetic acid]
- Airway resistance (RL) [1]: significantly reduced
- IC50 [2]: > 25 µM
- IC50 (PAI-2 (SERPINB2)): > 25 µM
- IC50 [3]: > 25 µM
- IC50 [4]: > 25 µM
- IC50 [5]: > 25 µM
- Adverse effects in the mouse model ([6]; chronic Dp model): could not find any adverse effects
- Changes in body weight ([6]; Dp-sensitized mice): did not show any weight loss
- Total collagen in the lungs [7]: reduced
